Measurements from patent publication EP4571315A1, “DIAGNOSTIC USE OF HIGHLY TOXIC AMYLOID OLIGOMER” (Shen Zhen Wisdom Biopharm Co., Ltd., priority 2022, dated 2024).

Tested on: N2a cells
Test: MTT assay, cytotoxicity to N2a cells
Assay type: cell-based
Conditions: for cell death: 0.5 nM; for IC50: 72 hours, read-out: half-inhibitory concentration (IC50) on cell viability
Protocol: This experiment mainly used the MTT assay to detect the toxicity of Aβ aggregates to neurons. The specific procedure was as follows: N2a cells were cultured in DMEM medium containing 10% FBS and 1% penicillin/streptomycin. The cells in the culture dish were digested with trypsin, centrifuged, and resuspended in the medium, and then inoculated in a 96-well plate, with about 5,000 cells/100 µL medium per well. After 12 hours, the cells were treated with a series of concentration gradients of sApo*3F and sAβos, and the same volume of solvent was added to the cells as a control. After 72 hours, 25 µL 5 mg/mL MTT was added to each well. After further culture at 37 °C for 3 hours, the medium was aspirated and 150 µL DMSO was added. The absorbance at 570 nm and 630 nm was measured using an MD-M5 microplate reader. The average value of six replicate wells was used for each sample and control, and each experiment was repeated three times. Cell viability was calculated by dividing the absorbance (background corrected) of the sample well with the absorbance (background corrected) of the well added with solvent.

| Substance | cell death | difference between the two IC50s (sAβos before immunoprecipitation vs sApo*3F) (MTT) [fold] | IC50 (MTT) [µM] | cytotoxicity / neurotoxicity (200 nM) [%] |
| --- | --- | --- | --- | --- |
| sApo*3F: Aβo*3F prepared in vitro: Aβ monomers incubated 2 days, immunoprecipitated with the antibody 3F | 66% | 340 | ~0.000186 |  |
| sAβos: Aβos prepared in vitro, 10 µM Aβ, 2-day incubation, before immunoprecipitation | no substantial neurotoxic effect |  | ~0.0633 | 70 |
